According to patent US9920014B2, “Selective inhibition of bacterial topoisomerase I” (THE FLORIDA INTERNATIONAL BOARD OF TRUSTEES MODESTO A. …, priority 2013, dated 2018):
Converted amounts (≈) assume the structure as drawn. “And” between values parts separate entries of the source, which are not always exact repeats. Equal entries are not always repeated. Where two headings read alike, the source gives them in different places.

What was measured:
[1] = test system: Staphylococcus aureus ATCC 29213; assay: MIC by microbroth dilution, S. aureus 29213; assay type: cell-based; settings: for MIC: Staphylococcus aureus, ATCC29213, 24 h 37° C., read-out: MIC S1 = S. aureus 29213; for MIC S1 = S. aureus 29213: 24 h 37° C.
Experimental: (§1) Minimum Inhibitory Concentration (MIC) Determination:
(§2) Bacteria used in this study were Staphylococcus aureus ATCC 29213, Escherichia coli ATCC 25922, Escherichia coli K12, Staphylococcus aureus ATCC 33591, Pseudomonas aeruginosa ATCC 27853, and Enterococcus faecalis ATCC 29212. All compounds were tested by the microbroth dilution method following Clinical and Laboratory Standards Institute guidelines. Briefly, Mueller-Hinton broth (Difco Laboratories, Becton Dickinson) was inoculated with each organism and incubated at 37° C. with shaking to establish logarithmic growth. Following incubation, each culture was pelleted by centrifugation (3,500×g for 5 min) and resuspended in 0.85% sterile saline solution to an optical density at 625 nm of 0.1. Samples were tested in triplicate using 96 well microplates (Corning Costar Corp. Cambridge, Mass.), yielding final bacterial concentrations of 5×10^5 CFU/mL, and incubated for 24 h at 37° C. Following incubation, optical densities of each well were determined with a μQuant microplate spectrophotometer (BioTek Instruments, Inc., Winooski, Vt.) at 625 nm.

[2] = test system: DU 145 cell line; assay: Cytotoxicity, sulforhodamine B assay; assay type: cell-based; settings: for IC50: 48 h treatment, SRB stain, read-out: IC50 against DU-145
Experimental: Cytotoxicity Experiments:
The DU 145 cell line was cultured according to ATCC protocols. Cells were harvested using trypsin-EDTA solution and counted using trypan blue exclusion. Cells were seeded at a volume of 100 μl/well in the wells of tissue culture treated 96 well plates at a density of […] per well. Seeded 96 well plates were returned to incubator (37° C., 5% CO2) for twenty-four hours to resume exponential growth.
Cell lines were then treated with 100 μl of each test compound or cisplatin in triplicate. The final concentrations of each treatment were: 20, 10, 5, 2.5, 1.25, 0.625 and 0.0625 μM. Each plate also contained wells containing untreated cells and media only as controls. After receiving treatments, the 96 well plates were returned to incubator (37° C., 5% CO2) for forty-eight hours.
After forty-eight hours of treatment, the treated plates were fixed with trichloroacetic acid and stained with sulforhodamine B using a modified version of the protocol described by Skehan et al. In short, 50 μl of cold 80% TCA was added to each well, at a final concentration of 16% TCA, and plates were incubated at 4° C. for one hour. The media and TCA solution was discarded and plates were washed four times using room temperature tap water. Plates were allowed to air dry overnight. Plates were stained with the addition of 70 μl/well of […] SRB in 1% (v/v) acetic acid solution. Samples were stained for fifteen minutes and then stain was discarded. Plates were then washed four times with 1% (v/v) acetic acid solution to remove unbound stain and allowed to air dry overnight at room temperature. Finally, SRB stain was solubilized by adding 150 μl of 10 mM unbuffered Tris base to each well. The absorbance of each samples at 560 nm was recorded using a Tecan plate reader and the IC50 was determined using Origin 4.0 software. Each study was completed in duplicate.

[3] = test system: Escherichia coli ATCC 25922; assay: MIC by microbroth dilution, E. coli 25922; assay type: cell-based; settings: for MIC: Escherichia coli, ATCC25922, 24 h 37° C., read-out: MIC S3 = E. coli 25922; for MIC S3 = E. coli 25922: 24 h 37° C.
Experimental: as §1, §2

[4] = test system: dA60.dT60 duplex; assay: UV thermal denaturation of AT rich DNA duplex; assay type: binding; settings: ligand 10 μM, DNA 1 μM/duplex, 10 mM sodium cacodylate, 0.1 mM EDTA, 100 mM NaCl, pH 7.0; for ΔTm (thermal stabilization): duplex alone 62.5° C.
Experimental: Nucleic acids were purchased from Integrated DNA Technologies (Coraville, Iowa). The concentration of the nucleic acid was determined using the extinction coefficient provided by the supplier. The DNA duplex was prepared by heating the dA60 and dT60 in equimolar ratio in buffer 10 mM sodium cacodylate, 0.1 mM EDTA and 100 mM NaCl at pH 7.0 at 95° C. for 15 minutes and then slowly allowing it to cool back to room temperature. After two days of incubation, the duplex formation was checked by UV thermal denaturation experiments. The stock solution was stored at 4° C. and diluted to desired concentrations as required.
Ultra Violet (UV) Thermal Denaturation Experiments:
All UV spectra were obtained on a 12 cell holder Cary 1E UV-Vis spectrophotometer equipped with temperature controller. Quartz cells with 1 cm path length were used for all the experiments. Spectrophotometer stability and wavelength alignment were checked prior to initiation of each thermal denaturation experiment. For all experiments, the samples were prepared by diluting a stock sample. The melting of DNA with and without the ligand was performed at a heating rate of 0.2° C./min. Samples were brought back to 20° C. after the experiment. All UV melting experiments were monitored at 260 nm. For the Tm determinations, derivatives were used. Data points were recorded every 1.0° C. The DNA concentration was 1 μM/duplex while the ligand concentration was 10 μM. All ligand solutions were prepared in dimethyl sulfoxide (DMSO) as concentrated stock solution (6-10 mM) and diluted to desired concentrations in buffer.
Bisbenzimidazoles are known to bind to the minor groove of AT rich DNA. The UV thermal denaturation experiments of the synthesized ligands were carried out with an AT rich DNA duplex. A 60 mer B-DNA duplex that was prepared by mixing equimolar amounts of a 60 mer homoadenine with a 60 mer homothymine polymer.

[5] = test system: Pseudomonas aeruginosa ATCC 27853; assay: MIC by microbroth dilution, P. aeruginosa 27853; assay type: cell-based; settings: for MIC: Pseudomonas aeruginosa, ATCC27853, 24 h 37° C., read-out: MIC S4 = P. aeruginosa 27853; for MIC S4 = P. aeruginosa 27853: 24 h 37° C.
Experimental: as §1, §2

[6] = test system: Staphylococcus aureus ATCC 33591; assay: MIC by microbroth dilution, S. aureus 33591; assay type: cell-based; settings: for MIC: Staphylococcus aureus, ATCC33591, 24 h 37° C., read-out: MIC S2 = S. aureus 33591; for MIC S2 = S. aureus 33591: 24 h 37° C.
Experimental: as §1, §2

[7] = biological target: human DNA topoisomerase II (Homo sapiens, UniProt P11388); assay: Inhibition assay against human DNA topoisomerase II (plasmid relaxation, agarose gel); assay type: biochemical; settings: for inhibition of human DNA topoisomerase II activities at 50 μM: 50 μM compound; for IC50: 4 units enzyme, supercoiled pBAD-GFPuv, 30 min 37° C., read-out: IC50 hTopo II
Experimental: Inhibition Assays Against Human DNA Topoisomerase II:
The reaction mixture (25 μl) contained 20 mM Tris-HCl at pH 7.9, 50 mM KAc, 10 mM Mg(Ac)2, 1 mM DTT, 1 μg/mL BSA, 200 ng supercoiled plasmid pBAD-GFPuv, 4 units of Human topoisomerase II, and one of the compounds at a final concentration that ranges from 5 to 50 μM. All components were assembled on ice and incubated for 30 minutes at 37° C. After the incubation, the reactions were terminated by extraction with an equal volume of phenol. The topological state of the DNA samples was analyzed with 1% agarose gel electrophoresis in 1×TAE buffer, pH 7.8. Following electrophoresis, the agarose gel was stained with Ethidium Bromide, destained, and photographed under UV light. The intensity of DNA topoisomers was determined using KODAK 1D Image Analysis Software. The percentage of (−) supercoiled DNA was calculated from a comparison of the intensity of the (−) supercoiled band with the total intensity of all DNA topoisomers. The IC50 was calculated as the amount of the drug for which 50% of the DNA was in a (−) supercoiled state.

Chain of human DNA topoisomerase II (P11388 whole entry): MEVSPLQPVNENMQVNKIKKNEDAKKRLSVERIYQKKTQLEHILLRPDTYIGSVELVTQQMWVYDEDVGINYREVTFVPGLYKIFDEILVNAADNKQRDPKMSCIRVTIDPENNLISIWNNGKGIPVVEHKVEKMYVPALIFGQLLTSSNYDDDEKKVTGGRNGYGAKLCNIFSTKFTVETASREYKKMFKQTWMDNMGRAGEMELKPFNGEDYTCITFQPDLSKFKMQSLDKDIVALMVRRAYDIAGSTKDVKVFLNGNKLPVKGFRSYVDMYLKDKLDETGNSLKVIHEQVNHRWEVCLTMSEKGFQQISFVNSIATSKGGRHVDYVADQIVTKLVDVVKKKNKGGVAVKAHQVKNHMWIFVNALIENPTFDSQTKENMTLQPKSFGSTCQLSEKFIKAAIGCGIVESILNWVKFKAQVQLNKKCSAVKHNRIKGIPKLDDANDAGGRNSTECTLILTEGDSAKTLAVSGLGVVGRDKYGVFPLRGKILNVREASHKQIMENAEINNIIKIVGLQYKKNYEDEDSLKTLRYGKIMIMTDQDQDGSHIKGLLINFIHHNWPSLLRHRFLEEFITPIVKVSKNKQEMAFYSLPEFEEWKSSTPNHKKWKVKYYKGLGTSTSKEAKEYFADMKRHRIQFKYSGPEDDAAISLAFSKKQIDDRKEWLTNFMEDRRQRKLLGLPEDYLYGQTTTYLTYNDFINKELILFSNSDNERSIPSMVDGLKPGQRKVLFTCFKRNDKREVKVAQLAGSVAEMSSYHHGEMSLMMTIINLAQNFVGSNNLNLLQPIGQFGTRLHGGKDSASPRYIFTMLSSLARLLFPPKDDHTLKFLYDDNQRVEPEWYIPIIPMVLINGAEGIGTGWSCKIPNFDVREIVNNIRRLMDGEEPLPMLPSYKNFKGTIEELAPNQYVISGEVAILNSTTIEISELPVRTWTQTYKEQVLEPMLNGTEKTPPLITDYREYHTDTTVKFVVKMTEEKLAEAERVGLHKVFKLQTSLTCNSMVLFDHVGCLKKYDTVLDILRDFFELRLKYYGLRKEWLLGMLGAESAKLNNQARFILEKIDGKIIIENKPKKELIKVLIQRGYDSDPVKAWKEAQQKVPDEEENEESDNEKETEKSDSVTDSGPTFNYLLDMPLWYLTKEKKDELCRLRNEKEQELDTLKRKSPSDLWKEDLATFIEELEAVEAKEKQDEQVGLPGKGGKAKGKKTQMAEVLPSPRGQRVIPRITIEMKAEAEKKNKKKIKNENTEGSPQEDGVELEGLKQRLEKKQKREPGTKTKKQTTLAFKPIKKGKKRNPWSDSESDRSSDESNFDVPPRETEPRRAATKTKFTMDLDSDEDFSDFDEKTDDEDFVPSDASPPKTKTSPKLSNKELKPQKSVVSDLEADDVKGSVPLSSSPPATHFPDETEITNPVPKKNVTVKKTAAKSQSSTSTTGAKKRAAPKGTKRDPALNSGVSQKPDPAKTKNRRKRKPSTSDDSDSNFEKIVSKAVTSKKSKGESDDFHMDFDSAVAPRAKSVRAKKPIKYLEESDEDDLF

Row | Structure (SMILES) | MIC [1] [µg/mL] | cytotoxicity relative to Hoechst 33242 ([2]; DU-145, 48 h) | IC50 ([2]; Homo sapiens, DU-145) [µM] | MIC [3] [µg/mL] | Tm [4] [°C] | ΔTm (thermal stabilization) [4] | melting point [°C] | MIC [5] [µg/mL] | MIC [6] [µg/mL] | MIC S1 = S. aureus 29213 [1] | MIC S3 = E. coli 25922 [3] [µg/mL] | MIC S4 = P. aeruginosa 27853 [5] [µg/mL] | inhibition of human DNA topoisomerase II activities at 50 μM [7] | IC50 [7] [µM] | MIC S2 = S. aureus 33591 [6] [µg/mL] | IC50 [2] [µM] | ΔTm (thermal stabilization) ([4]; listed as Hoechst 33242) [°C]
1 | C#CCCCCOc1ccc(-c2nc3ccc(-c4nc5ccc(N6CCN(C)CC6)cc5[nH]4)cc3[nH]2)cc1 [DPA 152, 2′-(4-(hex-5-ynyloxy)phenyl)-6-(4-methylpiperazin-1-yl)-1H,3′H-2,5′-bibenzo[d]imidazole] | 2 to 4 (≈ 3.96 to 7.93 µM) | nearly twice as toxic as Hoechst 33242 | 2.12 ± 0.46 | 8 to 16 (≈ 15.9 to 31.7 µM) | 83.4 | 20.9 °C | 210 to 220 | 16 (≈ 31.7 µM) | 2 to 4 (≈ 3.96 to 7.93 µM) | – | – | – | – | – | – | – | –
2 | CN1CCN(c2ccc3[nH]c(-c4ccc5[nH]c(-c6ccc(O)cc6)nc5c4)nc3c2)CC1 [Hoechst 33258, reference compound] | – | – | – | – | 87.1 | ~24 °C and 24.6 °C | – | – | – | ≥32^ ^ μg/ml | 16 (≈ 37.7 µM) | 16 (≈ 37.7 µM) | completely inhibit | 28.9 ± 4.45 | 16 to 32 | – | –
3 | C#CCOc1ccc(-c2nc3ccc(-c4nc5ccc(N6CCN(C)CC6)cc5[nH]4)cc3[nH]2)cc1 [DPA 151, 6-(4-methylpiperazin-1-yl)-2′-(4-(prop-2-ynyloxy)phenyl)-1H,3′H-2,5′-bibenzo[d]imidazole] | 2 to 4 (≈ 4.32 to 8.65 µM) | – | 3.24 ± 0.71 | 8 (≈ 17.3 µM) | 85.4 | 22.9 °C and 23.9 °C | – | – | 2 to 4 (≈ 4.32 to 8.65 µM) | – | – | – | partially inhibit | 51.6 ± 2.5 | – | – | –
4 | C#CCCCCCCCCCOc1ccc(-c2nc3ccc(-c4nc5ccc(N6CCN(C)CC6)cc5[nH]4)cc3[nH]2)cc1 [DPA 153, 6-(4-methylpiperazin-1-yl)-2′-(4-(undec-10-ynyloxy)phenyl)-1H,3′H-2,5′-bibenzo[d]imidazole] | – | – | > 10 | – | 70.5 | 8 °C | 170 to 175 | – | – | – | – | – | – | – | – | – | –
5 | C#CCOCCCCOc1ccc(-c2nc3ccc(-c4nc5ccc(N6CCN(C)CC6)cc5[nH]4)cc3[nH]2)cc1 [DPA 154, 6-(4-methylpiperazin-1-yl)-2′-(4-(4-(prop-2-ynyloxy)butoxy)phenyl)-1H,3′H-2,5′-bibenzo[d]imidazole] | 2 to 4 (≈ 3.74 to 7.48 µM) | – | 2.79 ± 0.13 | 8 to 16 (≈ 15 to 29.9 µM) | 85.9 | 23.4 °C | 150 to 155 | 16 (≈ 29.9 µM) | 2 to 4 (≈ 3.74 to 7.48 µM) | – | – | – | – | – | – | – | –
6 | CCOc1ccc(-c2nc3ccc(-c4nc5ccc(N6CCN(C)CC6)cc5[nH]4)cc3[nH]2)cc1 [Hoechst 33342, reference compound] | – | – | – | – | 86.6 | ~24 °C | – | – | – | 2 to 4 µg/mL | 8 to 16 | 16 (≈ 35.4 µM) | – | – | 2 to 4 | 4.25 | 24.1
